{"source": "patent US9770423B2", "about": "“Modulation sAPP, sAAPα and BDNF levels in individuals diagnosed with FXS and ASD” (Indiana University Research and Technology Corp., priority 2012, dated 2017)", "key": {"[1]": {"system": "youth with autistic disorder (idiopathic ASD)", "experiment": "12-week single-blind placebo lead-in trial of acamprosate in youth with autistic disorder: behavioral outcome measures", "type": "in vivo, human", "protocol": "One study was a 12-week single-blind, placebo-controlled trial of acamprosate in 12 youths with autistic disorder was conducted. The primary outcome measured was the Clinical Global Impression Improvement (CGI-I) scale with several additional behavioral secondary outcome measures employed. In this study, secreted amyloid precursor protein (sAPP) was measured pre- and post acamprosate treatment as blood biomarker assay Result: Twelve subjects (mean age=10.4 yrs.) entered the study and nine subjects completed a two week placebo lead-in and entered active treatment (mean final dose=1,073 mg/day). Six of nine (67%) subjects receiving acamprosate were judged treatment responders with a CGI-I score of 1 “very much improved” or 2 “much improved”. […] Among secondary outcome measures analyzed, significant acamprosate-associated improvement was noted on measures of social behavior and hyperactivity. Acamprosate use was also associated with reductions in sAPP levels.\nThe first project enrolled 12 youth aged 5 to 17 years with fragile X syndrome and comorbid ASD in a 10-week open-label trial of acamprosate. The second project enrolled 12 youth aged 5 to 17 years diagnosed with idiopathic ASD in a 12-week single-blind placebo lead-in study of acamprosate. In both projects, concomitant dosing of psychotropic drugs remained stable throughout study. In each project, pre- and post-acamprosate treatment plasma levels of sAPP total and sAPPα were obtained. All APP assay samples were collected, chilled, and walked within 2 hours of blood draw to the lab for analysis. Plasma sAPP total and sAPPα were determined in […] using the ELISA kit obtained from Immuno Biological Laboratories (IBL, Gumma, Japan). The ELISA kit is validated to measure levels of sAPPα in human samples and able to detect as low as 0.09 ng/ml of sAPPα in a typical sample, with only 0.3% cross-reactivity to sAPPβ. Levels of sAPP total and sAPPα in plasma were reported in nanograms per milliliter (ng/mL). Statistical analysis of pre- and post-acamprosate sAPP total and sAPPα levels were conducted using paired T-tests. Finally an exploratory post-hoc analysis of potential correlation between percent change in sAPP total or sAPPα and percent change in scores on the Aberrant Behavior Checklist Social Withdrawal/Lethargy subscale (ABC-SW) was conducted. The ABC-SW measures social impairment which is a core symptom domain of ASD. Post-hoc analysis was done with Spearman correlation calculations. All data was analyzed in IBM SPSS Version 20.\nA 12-week single-blind, placebo-controlled trial of the effect of acamprosate in the treatment of 12 youths with autistic disorder aged 5 to 17 years was carried out. In order to pilot test use of acamprosate in youth with autism targeting core social impairment, was conducted. All subjects and their family members were blinded to treatment status. All subjects participated in a 2 week placebo-lead-in phase prior to 10 weeks of treatment with acamprosate. For this project, enteric coated commercially available 333 mg acamprosate pills were over-encapsulated and identical matching placebo manufactured for the project. Placebo-responders, defined by a Clinical Global Impressions Improvement scale (CGI-I) score of 1 “very much improved” or 2 “much improved” (ratings anchored to core social deficits) at week 2 were asked to exit the study. During active treatment with acamprosate, dosing was increased in 333 mg increments per week over the first six weeks of active treatment to a maximum dose of 1,332 mg/day (weight<5 60 kg) or 1,998 mg/day (weight>60 kg). During the final four weeks of active drug treatment, subjects were maintained on a stable highest tolerated (optimal) dose. The primary outcome measure was the clinician-rated CGI-I anchored to symptoms of social impairment. […]"}, "[2]": {"experiment": "safety measures and adverse effects in the FXS open-label trial", "type": "in vivo, human", "text": "Safety assessment and monitoring began at screen when all subjects underwent a medical history, physical examination, and full psychiatric interview. A physical examination was also completed at end point. Vital signs, including height and weight, were obtained at each study visit. At screen, genetic testing for FXS was obtained if record of molecular testing utilizing Southern Blot and PCR was not available. At screen, week 6, and endpoint, laboratory tests of blood and urine, including CBC with differential and platelets, electrolyte panel, liver associated enzymes, lipid panel, and urine pregnancy test (in females) were obtained. An electrocardiogram was also obtained at screen and endpoint.\nThe pilot study ran for 10 weeks. Safety lab screens were carried out at weeks 6 and 10. Physiologic parameters measured during the safety screens were as follows: vital signs, LFTs, electrolyte panels, CBC with diff/plts, lipid panel, glucose, urinalysis and ECG.\nIn-person clinical visits were scheduled for every two weeks. Telephonic evaluations were carried out at weeks 1, 3, and 5. Each subject was evaluated for side effects at every interaction with the practitioner."}, "[3]": {"system": "leptin, beta endorphin, cortisol", "conditions": "humans with alcohol dependence; cited from earlier work"}, "[4]": {"system": "extracellular dopamine levels in the nucleus accumbens", "conditions": "rats; dependent on glycine receptor activation; cited from earlier work"}, "[5]": {"system": "glutamate or GABA receptors subtypes", "conditions": "xenopus oocyte model, clinically relevant concentrations; cited from earlier work"}, "[6]": {"conditions": "caregiver reported, 12 youth with FXS"}}}
{"smiles": "CC(=O)NCCCS(=O)(=O)O.[Ca]", "note": "[acamprosate, Calcium Acetylhomotaurine]", "values": [{"measurement": "CGI-S at endpoint", "setting": "[1]; autistic disorder, baseline 4.22+/-0.4, p=0.013", "result": "3.7+/−0.5"}, {"measurement": "ABC Lethargy/Social Withdrawal subscale (ABC-SW) at endpoint", "setting": "[1]; autistic disorder, baseline 14.1+/-8.5, p=0.019", "result": "10.0+/−8.4"}, {"measurement": "ABC Hyperactivity subscale at endpoint", "setting": "[1]; autistic disorder, baseline 25.4+/-12.6, p=0.005", "result": "16.6+/−12.4"}, {"measurement": "ADHD-RS at endpoint", "setting": "[1]; autistic disorder, baseline 29.5+/-10.4, p=0.002", "result": "20.75+/−9.7"}, {"measurement": "SRS total raw score at endpoint", "setting": "[1]; autistic disorder, baseline 107+/-28, p=0.002", "result": "91.4+/−30"}, {"measurement": "mean CGI-I at last visit", "setting": "[1]; nine subjects, last observation carried forward", "result": 2}, {"measurement": "treatment responders, number of subjects", "setting": "[1]; of 9 youth with idiopathic ASD", "result": 6}, {"measurement": "treatment responders (CGI-I score of 1 or 2)", "setting": "[1]; six of nine subjects receiving acamprosate, autistic disorder, mean final dose 1,073 mg/day", "result": 67, "unit": "%"}, {"measurement": "Increased body rocking, mild (number of patients)", "setting": "[2]; 12 youth with FXS", "result": 1}, {"measurement": "ECG including QTc interval", "setting": "[2]; FXS trial", "result": "no change in the QTc interval"}, {"measurement": "laboratory measures: lipids, electrolytes, liver function tests, blood counts", "setting": "[2]; FXS trial", "result": "no clinically significant or mean changes"}, {"measurement": "weight, pulse, or blood pressure", "setting": "[2]; FXS trial", "result": "No clinically significant changes"}, {"measurement": "overall tolerability", "setting": "[2]; FXS trial, 12 subjects", "result": "well tolerated overall, with no severe or serious adverse effects"}, {"measurement": "Constipation, mild (n subjects)", "setting": "[2]; [6]", "result": 1}, {"measurement": "Diarrhea, mild (n subjects)", "setting": "[2]; [6]", "result": 1}, {"measurement": "Increased Anxiety, mild (n subjects)", "setting": "[2]; [6]", "result": 1}, {"measurement": "Increased Repetitive Behavior, mild (n subjects)", "setting": "[2]; [6]", "result": 2}, {"measurement": "Insomnia, mild (n subjects)", "setting": "[2]; [6]", "result": 1}, {"measurement": "Irritability, mild (n subjects)", "setting": "[2]; [6]", "result": 4}, {"measurement": "Nightmares, mild (n subjects)", "setting": "[2]; [6]", "result": 1}, {"measurement": "Rhinitis, mild (n subjects)", "setting": "[2]; [6]", "result": 1}, {"measurement": "Urinary Urgency, mild (n subjects)", "setting": "[2]; [6]", "result": 1}, {"measurement": "subjects who experienced a mild adverse event", "setting": "[2]; nine of 12 subjects, FXS trial", "result": 75, "unit": "%"}, {"measurement": "hormone levels", "setting": "[3]", "result": "lowers levels of several hormones: leptin, beta endorphin, cortisol"}, {"measurement": "extracellular dopamine levels in the nucleus accumbens", "setting": "[4]", "result": "elevates extracellular dopamine levels"}, {"measurement": "direct binding to glutamate or GABA receptors subtypes", "setting": "[5]", "result": "no direct binding"}]}
